US11839613B2, “Pyrimidine derivatives as PGE2 receptor modulators” (IDORSIA PHARMACEUTICALS LTD, priority 2017, dated 2023)
Read-outs that look alike come from different tables or passages of the source.

Legend:
PTGER2 (EP2) = PTGER2 (EP2) (Homo sapiens (Human), UniProt P43116); assay: hEP2 b-arrestin assay (PathHunter HEK 293 PTGER2 b-arrestin cells); assay type: cell-based; details: antagonistic activity, beta-arrestin assay; read-out: hEP2 b-arr IC50
Procedure: Plate is pre-incubated 15 minutes at 37° C. Then five microliters of PGE2 (final conc. 5 μM) are transferred into the assay plate. Plate is incubated 120 minutes at 37° C.
(each concentration is measured in duplicate)

EP2 = EP2 (Homo sapiens (Human), UniProt P43116); assay: hEP2 cAMP assay (SF295 glioblastoma cells, HTRF cAMP); assay type: cell-based; details: antagonistic activity
Chain of EP2 (P43116 whole entry): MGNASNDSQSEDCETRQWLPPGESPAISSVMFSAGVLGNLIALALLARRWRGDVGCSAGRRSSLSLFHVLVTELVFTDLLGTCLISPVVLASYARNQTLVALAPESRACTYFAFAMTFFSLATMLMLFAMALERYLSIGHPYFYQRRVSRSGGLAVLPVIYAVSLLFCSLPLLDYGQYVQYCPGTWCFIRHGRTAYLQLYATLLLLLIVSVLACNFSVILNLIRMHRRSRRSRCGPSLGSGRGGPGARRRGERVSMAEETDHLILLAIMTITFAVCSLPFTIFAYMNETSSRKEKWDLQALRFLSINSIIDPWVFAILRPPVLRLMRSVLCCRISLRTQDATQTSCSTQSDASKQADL
Outline: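 PGE2-driven cAMP accumulation was measured by HTRF in SF295 cells, which express endogenous EP2 only. Cells in assay buffer with 2 mM IBMX were pre-incubated 45 min at RT, then incubated 30 min at RT. Detection used competition between cellular cAMP and d2-cAMP for a cryptate anti-cAMP antibody.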

EP4 = EP4 (Homo sapiens (Human), UniProt P35408); assay: hEP4 cAMP assay (BT549 breast cancer cells, HTRF cAMP); assay type: cell-based; details: antagonistic activity, PGE2 6 nM
Chain of EP4 (P35408 whole entry): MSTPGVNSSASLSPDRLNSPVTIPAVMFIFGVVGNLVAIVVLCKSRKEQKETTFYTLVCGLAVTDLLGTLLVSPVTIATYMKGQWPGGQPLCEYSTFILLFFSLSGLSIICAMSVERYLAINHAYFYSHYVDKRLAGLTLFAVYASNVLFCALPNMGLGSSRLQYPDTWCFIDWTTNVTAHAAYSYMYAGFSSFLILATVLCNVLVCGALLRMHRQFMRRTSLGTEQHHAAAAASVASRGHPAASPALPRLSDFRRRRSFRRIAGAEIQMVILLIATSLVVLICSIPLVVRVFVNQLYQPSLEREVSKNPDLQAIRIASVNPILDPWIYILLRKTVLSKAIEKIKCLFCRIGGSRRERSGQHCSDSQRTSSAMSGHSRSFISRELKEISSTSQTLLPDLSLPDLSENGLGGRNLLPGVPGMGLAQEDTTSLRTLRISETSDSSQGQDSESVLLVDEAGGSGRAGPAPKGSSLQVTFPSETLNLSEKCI
Outline: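 cAMP accumulation quantified by HTRF competition between cellular cAMP and d2-labeled cAMP for cryptate anti-cAMP antibody. Cells: endogenously EP4-expressing BT549, buffer with 2 mM IBMX; 45 min RT compound preincubation preceded 30 min RT challenge with PGE2 at 6 nM final.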

PTGER4 (EP4) [1] = biological target: T1, PTGER4 (EP4) (Homo sapiens (Human), UniProt P35408)
T1 sequence (P35408 whole entry): as above

PTGER4 (EP4) [2] = biological target: T1, PTGER4 (EP4); assay: cell-based

Chain of PTGER2 (EP2) (P43116 whole entry): as the sequence (P43116 whole entry) above

| IC50 (PTGER2 (EP2)) [nM] | IC50 (EP2) [nM] | IC50 (PTGER4 (EP4) [1]) [nM] | IC50 (EP4) [nM] | IC50 (PTGER4 (EP4) [2]) [nM] | Compound | IC50 (EP4; BT549 cells) [nM] |
| --- | --- | --- | --- | --- | --- | --- |
| 6 | 8 | 2 | 1 | – | CCOc1cc(-c2cc(NCCc3c(OC)cc4ccccc4c3C)ncn2)sc1C(=O)O [Ex 1] | – |
| – | 269 | 5 | 8 | – | CCOc1cc(-c2cc(NCCc3cc4ccn(C)c4cc3F)ncn2)sc1C(=O)O [Ex 16] | – |
| – | 249 | 16 | 11 | – | CCOc1cc(-c2cc(NCCc3cc4ccccc4c(Cl)c3OC)ncn2)sc1C(=O)O [Ex 19] | – |
| – | 395 | 20 | 13 | – | CCOc1cc(-c2cc(NCCc3ccc4cccnc4c3C)ncn2)sc1C(=O)O [Ex 22] | – |
| – | 7740 | 6 | 18 | – | CCOc1cc(-c2cc(NCCc3cc4ccccc4cc3OC(C)C)ncn2)sc1C(=O)O [Ex 31] | – |
| – | 281 | 16 | 22 | – | CCOc1cc(-c2cc(NCCc3c(OC)cc4ccccc4c3F)ncn2)ccc1CC(=O)O [Ex 37] | – |
| – | 331 | 68 | 27 | – | CCOc1cc(-c2cc(NCCc3c(C#N)cc4ccccc4c3C)ncn2)ccc1C(=O)O [Ex 54] | – |
| – | 1220 | 21 | 35 | – | CCOc1cc(-c2cc(NCCc3ccc4cccc(F)c4c3)ncn2)sc1C(=O)O [Ex 66] | – |
| – | 483 | 86 | 41 | – | C=Cc1c(CCNc2cc(-c3cc(OCC)c(C(=O)O)s3)ncn2)ccc2ccccc12 [Ex 75] | – |
| – | 251 | 128 | 46 | – | CCOc1cc(-c2cc(NCCc3cc4ccsc4cc3C#N)ncn2)ccc1CC(=O)O [Ex 82] | – |
| – | 1280 | 19 | 47 | – | CCOc1cc(-c2cc(NCCc3cc4ccccc4cc3C#N)ncn2)ccc1OCC(=O)O [Ex 84] | – |
| – | 445 | 79 | 49 | – | CCOc1cc(-c2cc(NCCc3cc(F)c4ncccc4c3F)ncn2)sc1C(=O)O [Ex 86] | – |
| – | 19400 | 17 | 54 | – | CCOc1cc(-c2cc(NCCc3cc4ccccc4cc3OC(C)C)ncn2)ccc1OCC(=O)O [Ex 89] | – |
| – | 586 | 40 | 56 | – | CCOc1cc(-c2cc(NCCc3ccc4ncsc4c3)ncn2)sc1C(=O)O [Ex 91] | – |
| – | 1680 | 105 | 57 | – | CCOc1cc(-c2cc(NCCc3cc4ccccc4cc3C#N)ncn2)ccc1C(=O)O [Ex 92] | – |
| – | 447 | 25 | 59 | – | CCOc1cc(-c2cc(NCCc3cc(C)c4c(c3)OCCO4)ncn2)sc1C(=O)O [Ex 95] | – |
| – | 314 | 33 | 64 | – | CCOc1cc(-c2cc(NCCc3cc4cccnc4cc3F)ncn2)sc1C(=O)O [Ex 98] | – |
| – | 831 | 135 | 74 | – | CCOc1cc(-c2cc(NCCc3cc4cnccc4cc3F)ncn2)sc1C(=O)O [Ex 106] | – |
| – | 251 | 179 | 82 | – | N#Cc1cc2c(cc1CCNc1cc(-c3ccc(C(=O)O)c(OC4CCC4)c3)ncn1)OCCO2 [Ex 113] | – |
| – | 283 | 42 | 93 | – | CCOc1cc(-c2cc(NCCc3ccc4sccc4c3)ncn2)ccc1OCC(=O)O [Ex 121] | – |
| – | 494 | 35 | 104 | – | CCOc1cc(-c2cc(NCCc3cc4ccccc4cc3OC(F)F)ncn2)ccc1OCC(=O)O [Ex 129] | – |
| – | 353 | 68 | 106 | – | C#Cc1c(CCNc2cc(-c3ccc(C(=O)O)c(OC4CCC4)c3)ncn2)ccc2ccccc12 [Ex 131] | – |
| – | 358 | 63 | 84 | – | CCOc1cc(-c2cc(NCCc3ccc4ccccc4c3C)ncn2)ccc1OCCC(=O)O [Ex 134] | – |
| – | 459 | 95 | 121 | – | C#Cc1c(CCNc2cc(-c3ccc(OCC(=O)O)c(OCC)c3)ncn2)ccc2ccccc12 [Ex 140] | – |
| – | 328 | 131 | 122 | – | C#Cc1c(CCNc2cc(-c3ccc(C(=O)O)c(OCC)c3)ncn2)ccc2ccccc12 [Ex 141] | – |

| IC50 (PTGER2 (EP2)) [nM] | IC50 (EP2) [nM] | IC50 (PTGER4 (EP4) [1]) [nM] | IC50 (EP4) [nM] | IC50 (PTGER4 (EP4) [2]) [nM] | Compound | IC50 (EP4; BT549 cells) [nM] |
| --- | --- | --- | --- | --- | --- | --- |
| – | 751 | 91 | 132 | – | CCOc1cc(-c2cc(NCCc3ccc4ccsc4c3)ncn2)ccc1OCC(=O)O [Ex 144] | – |
| – | 619 | 194 | 144 | – | CCOc1cc(-c2cc(NCCc3cc4c(cc3Cl)NCCO4)ncn2)sc1C(=O)O [Ex 149] | – |
| – | 333 | 188 | 164 | – | CCOc1cc(-c2cc(NCCc3cc4c(cc3Cl)OC(F)(F)O4)ncn2)sc1C(=O)O [Ex 165] | – |
| – | 769 | 128 | 183 | – | CCOc1cc(-c2cc(NCCc3cc4c(cc3OC)NCCC4)ncn2)sc1C(=O)O [Ex 173] | – |
| – | 280 | 156 | 186 | – | CCOc1cc(-c2cc(NCCc3cc4cccnc4cc3C)ncn2)sc1C(=O)O [Ex 177] | – |
| – | 568 | 309 | 188 | – | CCOc1cc(-c2cc(NCCc3cc4cccnc4c(C)c3Cl)ncn2)ccc1OCC(=O)O [Ex 179] | – |
| – | 692 | 55 | 188 | – | O=C(O)c1ccc(-c2cc(NCCc3cc4ccccc4cc3OC(F)F)ncn2)cc1OC1CCC1 [Ex 180] | – |
| – | 811 | 194 | 202 | – | COc1c(CCNc2cc(-c3ccc(C(=O)O)c(SC)c3)ncn2)cc2ccccc2c1Cl [Ex 186] | – |
| – | 329 | 279 | 208 | – | CCOc1cc(-c2cc(NCCc3c(F)cc4ncccc4c3F)ncn2)ccc1OCC(=O)O [Ex 191] | – |
| – | 277 | 77 | 234 | – | CCOc1cc(-c2cc(NCCc3ccc4sccc4c3)ncn2)ccc1OC(C)C(=O)O (centres unmarked) [Ex 202] | – |
| – | 687 | 352 | 237 | – | CCOc1cc(-c2cc(NCCc3cc4c(cc3C#N)OCCO4)ncn2)ccc1C(=O)O [Ex 203] | – |
| – | 5650 | 286 | 315 | – | O=C(O)c1ccc(-c2cc(NCCc3ccc4cccc(F)c4c3)ncn2)cc1OC1CCC1 [Ex 231] | – |
| – | 272 | 788 | 380 | – | CCOc1cc(-c2cc(NCCc3ccc4c(c3)CCS4)ncn2)ccc1C(=O)O [Ex 255] | – |
| – | 559 | 743 | 489 | – | CCOc1cc(-c2cc(NCCc3cc4ccccc4cc3Cl)ncn2)ccc1C(=O)O [Ex 279] | – |
| – | > 28100 | 125 | 509 | – | CCOc1cc(-c2cc(NCCc3cc4ccccc4cc3OC(C)C)ncn2)ccc1C(=O)O [Ex 284] | – |
| – | 269 | 815 | 538 | – | O=C(O)c1ccc(-c2cc(NCCc3ccc4scnc4c3)ncn2)cc1OC1CCC1 [Ex 291] | – |
| – | 926 | 866 | 674 | – | CCOc1cc(-c2cc(NCCc3ccc4sccc4c3)nc(C)n2)ccc1CC(=O)O [Ex 308] | – |
| – | 2490 | 556 | 689 | – | CCOc1cc(-c2cc(NCCc3cc4ccccc4cc3NC)ncn2)ccc1C(=O)O [Ex 312] | – |
| – | 755 | 798 | 956 | – | COc1cc2c(cc1CCNc1cc(-c3ccc(C(=O)O)c(SC)c3)ncn1)CCCN2 [Ex 329] | – |
| 359 | – | 128 | – | – | O=C(O)c1ccc(-c2cc(NCCc3c(F)cc4ccccc4c3F)ncn2)cc1OC1CCC1 [Ex 333] | – |
| 225 | – | 113 | – | – | CSc1cc(-c2cc(NCCc3c(F)cc4ccccc4c3F)ncn2)ccc1C(=O)O [Ex 336] | – |
| – | 459 | 15 | 64 | – | CCOc1cc(-c2cc(NCCc3ccc4ncccc4c3)ncn2)sc1-c1noc(=O)[nH]1 [Example 338, 3-{3-Ethoxy-5-[6-(2-quinolin-6-yl-ethylamino)-pyrimidin-4-y]-thiophen-2-yl}-[1,2,4]oxadiazol-5(4H)-one] | – |
| 934 | – | 223 | – | – | CCOc1cc(-c2cc(NCCc3cc(F)c4sccc4c3)ncn2)ccc1C(=O)NCC(C)(C)O [Example 463] | – |
| 206 | 190 | – | – | 171 | CCOc1cc(-c2cc(NCCc3ccc4scc(C)c4c3)ncn2)ccc1OCC(=O)O [Example 466, (2-Ethoxy-4-{6-[2-(3-methyl-benzo[b]thiophen-5-yl)-ethylamino]-pyrimidin-4-yl}-phenoxy)-acetic acid] | 1210 |

| Compound | IC50 (PTGER2 (EP2)) [nM] | IC50 (EP2) [nM] | IC50 (PTGER4 (EP4) [1]) [nM] | IC50 (EP4) [nM] | IC50 (PTGER4 (EP4) [2]) [nM] | IC50 (EP4; BT549 cells) [nM] |
| --- | --- | --- | --- | --- | --- | --- |
| 2-Ethoxy-4-{6-[2-(7-ethynyl-2,3-dihydro-benzo[1,4]dioxin-6-yl)-ethylamino]-pyrimidin-4-yl}-benzoic acid [Example 439] | 17 | 33 | 197 | – | – | 139 |
| (4-{6-[2-(4-Fluoro-benzo[b]thiophen-5-yl)-ethylamino]-pyrimidin-4-yl}-2-trifluoromethoxy-phenyl)-acetic acid [Example 489] | 231 | – | 128 | – | – | – |
| (4-{6-[2-(7-Ethynyl-2,3-dihydro-benzo[1,4]dioxin-6-yl)-ethylamino]-pyrimidin-4-yl}-2-propyl-phenyl)-acetic acid [Example 440] | – | 25 | 51 | – | – | 65 |
